Test results taken from patent US11976083B2, “Inhibitors of peptidylarginine deiminases” (Gilead Sciences, Inc., priority 2020, dated 2024).

test system: collagen induced arthritis (CIA); assay: not given; conditions: prophylactic treatment, murine CIA model; cited from earlier work

| Molecule | clinical and histological scores |
| --- | --- |
| CCn1c(-c2nc3cc(C(=O)N4CCC[C@@H](N)C4)cc(OC)c3n2C)cc2cccnc21.Cl [GSK199] | improvement of clinical and histological scores |
| NC(=O)[C@H](CCCN=C(N)CCl)NC(=O)c1ccccc1 [chloroamidine] | improvement of clinical and histological scores |

target: T1, human PAD4 (Homo sapiens, UniProt Q9UM07); assay: In vitro PAD4 BAEE biochemical assay; conditions: BAEE substrate 3 mM, 5 nM PAD4, 2 mM calcium chloride; geometric mean of multiple experiments
T1 construct: human PAD4 (NM_012387), A2-P663, was PCR amplified; His-SUMO (N, cleaved yes); made in house; host or cells: E. coli BL21(DE3)
T1 sequence (Q9UM07 2-663): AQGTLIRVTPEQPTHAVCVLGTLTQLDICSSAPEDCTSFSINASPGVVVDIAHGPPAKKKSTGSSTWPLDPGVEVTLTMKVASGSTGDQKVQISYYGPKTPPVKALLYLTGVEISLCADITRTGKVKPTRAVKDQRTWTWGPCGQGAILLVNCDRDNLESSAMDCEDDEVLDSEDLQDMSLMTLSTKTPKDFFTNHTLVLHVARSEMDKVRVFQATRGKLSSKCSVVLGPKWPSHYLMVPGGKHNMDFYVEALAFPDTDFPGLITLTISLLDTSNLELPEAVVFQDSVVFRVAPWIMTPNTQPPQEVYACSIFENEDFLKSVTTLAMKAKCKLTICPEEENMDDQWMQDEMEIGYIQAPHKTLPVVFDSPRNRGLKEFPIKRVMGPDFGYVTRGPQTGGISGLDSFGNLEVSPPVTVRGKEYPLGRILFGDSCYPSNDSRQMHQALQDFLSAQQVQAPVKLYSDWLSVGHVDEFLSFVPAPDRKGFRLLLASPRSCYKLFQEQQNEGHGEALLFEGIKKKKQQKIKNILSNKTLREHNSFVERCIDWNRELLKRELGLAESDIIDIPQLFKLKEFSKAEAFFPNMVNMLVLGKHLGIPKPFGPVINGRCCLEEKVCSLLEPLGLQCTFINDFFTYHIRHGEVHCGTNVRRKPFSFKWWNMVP
Method in brief: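 Recombinant human PAD4 (5 nM final) with 2 mM CaCl2 was preincubated with compound 30 min at 25 °C in MOPS buffer pH 7.6, then reacted with 3 mM BAEE for 2 h at 25 °C. After EDTA stop, released ammonia was detected by o-phthalaldehyde/DTT fluorescence (ex 405/em 535 nm); IC50 from four-parameter fit, geometric mean.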

| Molecule | IC50 |
| --- | --- |
| (2~{R})-17-[5-[(1~{S),4~{R}, 5~{R})-4-amino-2-azabicyclo [3.2.1]octane-2-carbonyl]-1- cyclopropyl-benzimidazol-2- yl]-8-chloro-2-methyl-3,9,16,22- tetrazatetracyclo[14.5.2.0^ {5,10}.0^{19,23}]tricosa- 1(22),5(10),6,8,17,19(23),20- heptaen-4-one [Example 926] | 23 nM |
| (2~{R})-17-[5-[(1~{S},4~{R}, 5~{R})-4-amino-2-azabicyclo [3.2.1]octane-2-carbonyl]- 7-(difluoromethoxy)-1-methyl- benzimidazol-2-yl]-8-chloro- 2-methyl-3,9,16,22- tetrazatetracyclo[14.5.2.0^ {5,10).0^{19,23}]tricosa- 1(22),5(10),6,8,17,19(23),20- heptaen-4-one [Example 762] | 26 nM |
| (2~{R})-17-[5-[(1~{S}, 4~{R},5~{R})-4-amino-2- azabicyclo[3.2.1]octane-2- carbonyl]-1-cyclopropyl- 7-fluoro-benzimidazol-2-yl]- 6-(difluoromethyl)-2- methyl-3,7,16,22- tetrazatetracyclo[14.5.2.0^ {5,10}.0^{19,23}]tricosa- 1(22),5(10),6,8,17,19(23),20- heptaen-4-one [Example 718] | 18 nM |

Further lines, results first:

| IC50 | Molecule |
| --- | --- |
| 31 nM | COc1cc(C(=O)N2C[C@H](N)[C@@H]3CC[C@H]2C3)cc2nc(-c3cc4ccc5nc4n3CCCCCC[C@](C)(F)C(=O)N[C@@H]5C)n(C)c12 [Example 949, (8~{S},11~{R})-17-[5-[(1~{S},4~{R},5~{R})-4-amino-2-azabicyclo[3.2.1]octane-2-carbonyl]-7-methoxy-1-methyl-benzimidazol-2-yl]-8-fluoro-8,11-dimethyl-1,10,19-triazatricyclo [10.5.2.0^{15,18}]nonadeca-12(19),13,15(18),16-tetraen-9-one] |
| 38 nM | COc1cc(C(=O)N2C[C@H](N)[C@@H]3CC[C@H]2C3)cc2nc(-c3cc4ccc5nc4n3CCCc3ccc4cccc(c4c3)C(=O)N[C@@H]5C)n(C)c12 [Example 950, (4~{R})-10-[5-[(1~{S},4~{R},5~ {R})-4-amino-2-azabicyclo [3.2.1]octane-2-carbonyl]-7-methoxy-1-methyl-benzimidazol-2-yl]-4-methyl-3,6,11-triazapentacyclo [13.6.2.2^{5,8}.0^{7,11}.0^ {18,22}]pentacosa-1(22),5,7,9, 15(23),16,18,20,24-nonaen-2-one] |
| 24 nM | [2H]C1([2H])CCCn2c(-c3nc4cc(C(=O)N5C[C@H](N)[C@@H]6CC[C@H]5C6)cc(F)c4n3C3CC3)cc3ccc(nc32)[C@@H](C)NC(=O)c2ccc(Cl)nc2C1([2H])[2H] [Example 951, (2~{R})-17-[5-[(1~{S},4~{R}, 5~{R})-4-amino-2-azabicyclo [3.2.1]octane-2-carbonyl]-1-cyclopropyl-7-fluoro-benzimidazol-2-yl]-8-chloro-11,11,12,12-tetradeuterio-2-methyl-3,9,16,22-tetrazatetracyclo[14.5.2.0^ {5,10).0^{19,23}]tricosa-1(22),5(10),6,8,17,19(23),20-heptaen-4-one] |
| 21 nM | C[C@H]1NC(=O)[C@@H]2C[C@@]2(F)CCCCCn2c(-c3nc4cc(C(=O)N5C[C@H](N)[C@@H]6CC[C@H]5C6)cc(F)c4n3C3C[C@H]3F)cc3ccc1nc32 (stereo partly drawn) [Example 952, (2~{R},5~{S},7~{S})-14-[5-[(1~{S},4~{R},5~{R})-4-amino-2-azabicyclo[3.2.1]octane-2-carbonyl]-7-fluoro-1-[(1~{R},2~{R})-2-fluorocyclopropyl]benzimidazol-2-yl]-7-fluoro-2-methyl-3,13,19-triazatetracyclo [11.5.2.0^{5,7}.0^{16,20}] icosa-1(19),14,16(20),17-tetraen-4-one] |
| 68 nM | COc1cc(C(=O)N2C[C@H](N)[C@@H]3CC[C@H]2C3)cc2nc(-c3cc4ccc5nc4n3CCCCCc3ccc(F)cc3C(=O)N[C@@H]5C)n(C3CC3)c12 [Example 953, (2~{R})-17-[5-[(1~{S},4~{R}, 5~{R})-4-amino-2-azabicyclo [3.2.1]octane-2-carbonyl]-1-cyclopropyl-7-methoxy-benzimidazol-2-yl]-7-fluoro-2-methyl-3,16,22-triazatetracyclo[14.5.2.0^ {5,10}.0^{19,23}]tricosa-1(22),5(10),6,8,17,19(23), 20-heptaen-4-one] |
| 32 nM | COc1cc(C(=O)N2C[C@H](N)[C@@H]3CC[C@H]2C3)cc2nc(-c3cc4ccc5nc4n3CCCCCc3ccc(Cl)nc3C(=O)N[C@@H]5C)n(C)c12 [Example 954, (2~{R})-17-[5-[(1~{S},4~{R}, 5~{R})-4-amino-2-azabicyclo [3.2.1]octane-2-carbonyl]-7-methoxy-1-methyl-benzimidazol-2-yl]-7-chloro-2-methyl-3,6,16,22-tetrazatetracyclo[14.5.2.0^ {5,10}.0^{19,23}]tricosa-1(21),5(10),6,8,17,19,22-heptaen-4-one] |
| 81 nM | COc1cc(C(=O)N2C[C@H](N)[C@@H]3CC[C@H]2C3)cc2nc(-c3cc4ccc5nc4n3CCCC[C@]3(F)C[C@H]3C(=O)N3CCC[C@H]53)n(C)c12 [Example 955, (2~{R},8~{S},10~{S})-16-[5-[(1~{S},4~{R},5~{R})-4-amino-2-azabicyclo[3.2.1]octane-2-carbonyl]-7-methoxy-1-methyl-benzimidazol-2-yl]-10-fluoro-6,15,21-triazapentacyclo [13.5.2.0^{2,6}.0^{8,10}.0^ {18,22}]docosa-1(21),16, 18(22),19-tetraen-7-one] |

test system: models of chronic and acute inflammatory diseases; assay: not given; conditions: MRL/lpr mouse lupus, hemorrhagic shock in rats, mouse CLP sepsis, mouse DSS-colitis, ApoE-/- arteriosclerosis, diabetic wound healing models; cited from earlier work

| Molecule | clinical, inflammatory, histopathological and mechanical end points |
| --- | --- |
| NC(=O)[C@H](CCCN=C(N)CCl)NC(=O)c1ccccc1 [chloroamidine] | reduction of clinical, inflammatory, histopathological and mechanical end points |
| YW3-56 | reduction of clinical, inflammatory, histopathological and mechanical end points |

test system: not given; assay: not given; conditions: from COc1cc(C(=O)OC(C)C)cc2nc(-c3cc4ccc([C@@H](C)N)nc4n3CCCCCc3ccccc3C(=O)O)n(C)c12; amide bond; HATU; DCM; 24.6 mM; 25.0 °C; 16.0 h

| Molecule | ring closure, yield of all isomers |
| --- | --- |
| COc1cc(C(=O)OC(C)C)cc2nc(-c3cc4ccc5nc4n3CCCCCc3ccccc3C(=O)N[C@@H]5C)n(C)c12 | 70.9% |
